From ChEMBL document CHEMBL1949544, “Proteasome inhibitors from Neoboutonia melleri” (J Nat Prod, 2012)

Columns and labels:
DLD-1 [1] = assay: Inhibition of proteasome activity in human DLD1 cells expressing 4-ubiquitin luciferase reporter protein assessed increase of luciferase signal at 5 uM after 7 hrs relative to control
DLD-1 [2] = assay: Inhibition of proteasome activity in human DLD1 cells expressing 4-ubiquitin luciferase reporter protein assessed increase of luciferase signal at 0.5 uM after 7 hrs relative to control
DLD-1 [3] = assay: Inhibition of proteasome activity in human DLD1 cells expressing 4-ubiquitin luciferase reporter protein assessed increase of luciferase signal at 1 uM after 7 hrs relative to control
DLD-1 [4] = assay: Inhibition of proteasome activity in human DLD1 cells expressing 4-ubiquitin luciferase reporter protein assessed increase of luciferase signal at 10 uM after 7 hrs relative to control

Compound | fold change (FC) (DLD-1 [1]) | fold change (FC) (DLD-1 [2]) | fold change (FC) (DLD-1 [3]) | fold change (FC) (DLD-1 [4])
C=C(C(=O)[C@H](OC(C)=O)[C@@H](C)[C@H]1[C@@H](OC(C)=O)C[C@@]2(C)[C@@H]3C[C@@H](O)[C@H]4[C@H](C)C(=O)C=C[C@@]45C[C@@]35CC[C@]12C)[C@@H](C)CO | 31 | 1.2 | 5.1 | –
C=C(C(=O)[C@H](OC(C)=O)[C@@H](C)[C@H]1[C@@H](OC(C)=O)C[C@@]2(C)[C@@H]3CC[C@H]4[C@H](C)C(=O)C=C[C@@]45C[C@@]35CC[C@]12C)[C@@H](C)CO | 37 | 2.1 | 48 | 4.4
C=C1C(C)CO[C@@]12C[C@@H](C)[C@H]1[C@H](C[C@@]3(C)[C@@H]4CC[C@H]5[C@](C)(C(=O)O)[C@@H](O)CC[C@@]56C[C@@]46CC[C@]13C)O2 (some centres not stated) | 1.3 | – | 1.2 | 1.3
C=C(C(=O)[C@H](OC(C)=O)[C@@H](C)[C@H]1[C@@H](OC(C)=O)C[C@@]2(C)[C@@H]3CC[C@H]4[C@H](C)C(=O)C=C[C@]45C[C@]35CC[C@]12C)[C@@H](C)CO | 84 | 1.4 | 2 | 24
C=C(C(=O)[C@H](O)[C@@H](C)[C@H]1[C@@H](OC(C)=O)C[C@@]2(C)[C@@H]3CC[C@H]4[C@H](C)C(=O)C=C[C@]45C[C@]35CC[C@]12C)[C@@H](C)CO | 9.1 | 0.9 | 0.9 | –
C=C(C(=O)[C@H](OC(C)=O)[C@@H](C)[C@H]1[C@@H](OC(C)=O)C[C@@]2(C)[C@@H]3CC[C@H]4[C@H](C)C(=O)[C@H](O)[C@H]5C[C@]54C3=CC[C@]12C)[C@@H](C)CO | 1.9 | – | 1.2 | 15
C=C(C(=O)[C@H](OC(C)=O)[C@@H](C)[C@H]1[C@@H](OC(C)=O)C[C@@]2(C)[C@@H]3CC[C@H]4[C@H](C)C(=O)C=C[C@@]45C[C@@]35CC[C@]12C)C(C)C | 74 | – | 7.2 | 19
CC(=O)O[C@H]1C[C@@]2(C)[C@@H]3CC[C@H]4[C@H](C)C(=O)C=C[C@@]45C[C@@]35CC[C@]2(C)[C@H]1[C@H](C)[C@@H](O)C(=O)C=C(C)C | 5.2 | – | 1.1 | 53
C=C(C(=O)C1(O)O[C@H]2C[C@@]3(C)[C@@H]4CC[C@H]5[C@H](C)C(=O)C=C[C@@]56C[C@@]46CC[C@]3(C)[C@H]2[C@@H]1C)[C@@H](C)CO (some centres not stated) | 1 | – | 0.9 | 2.6
C=C(C(=O)[C@H](O)[C@@H](C)[C@H]1[C@@H](OC(C)=O)C[C@@]2(C)[C@@H]3CC[C@H]4[C@H](C)C(=O)C[C@H](O)[C@@]45C[C@@]35CC[C@]12C)[C@@H](C)CO | 11 | 1.3 | 1.6 | 74
C=C(C(=O)[C@H](O)[C@@H](C)[C@H]1[C@@H](OC(C)=O)C[C@@]2(C)[C@@H]3CC[C@H]4[C@H](C)C(=O)C=C[C@@]45C[C@@]35CC[C@]12C)[C@@H](C)CO | 28 | 1.4 | 45 | 2.9
C=C(C(=O)[C@H](O)[C@@H](C)[C@H]1[C@@H](OC(C)=O)C[C@@]2(C)[C@@H]3C[C@@H](O)[C@H]4[C@H](C)C(=O)C=C[C@@]45C[C@@]35CC[C@]12C)[C@@H](C)CO | 35 | – | 1.1 | –
C=C(C(=O)[C@H](OC(C)=O)[C@@H](C)[C@H]1[C@@H](OC(C)=O)C[C@@]2(C)[C@@H]3CC[C@H]4[C@H](C)C(=O)C=C[C@@]45C[C@@]35CC[C@]12CO)[C@@H](C)CO | 12 | – | 1.2 | 1.1
C=C(C(=O)[C@H](OC(C)=O)[C@@H](C)[C@H]1[C@@H](OC(C)=O)C[C@@]2(C)[C@@H]3CC[C@H]4[C@H](C)C(=O)CC[C@@]45C[C@@]35CC[C@]12C)[C@@H](C)CO | 45 | – | 0.9 | 48
C=C(C(=O)[C@H](O)[C@@H](C)[C@H]1[C@@H](OC(C)=O)C[C@@]2(C)[C@@H]3CC[C@H]4[C@H](C)C(=O)C=C[C@@]45C[C@@]35CC[C@]12C)C(C)C | 65 | – | 2.4 | 20
C=C(C(=O)[C@H](OC(C)=O)[C@@H](C)[C@H]1[C@@H](OC(C)=O)C[C@@]2(C)[C@@H]3CC[C@H]4[C@H](C)C(=O)C=C[C@@]45C[C@@]35CC[C@]12C)[C@@H](C)C=O | 70 | – | 1 | 31
C=C(C(=O)C[C@@H](C)[C@H]1CC[C@@]2(C)[C@@H]3CC[C@H]4[C@](C)(C(=O)O[C@@H]5O[C@@H](C)[C@H](O)[C@@H](O)[C@H]5O)[C@@H](O)CC[C@@]45C[C@@]35CC[C@]12C)C(C)C | 1 | – | 1.1 | 1.1
C=C(C(=O)[C@H](O)[C@@H](C)[C@H]1[C@@H](OC(C)=O)C[C@@]2(C)[C@@H]3CC[C@H]4[C@H](C)C(=O)CC[C@@]45C[C@@]35CC[C@]12C)[C@@H](C)CO | 10 | – | 1.2 | 77
CC(=O)O[C@H]1C[C@@]2(C)[C@@H]3CC[C@H]4[C@H](C)C(=O)C=C[C@@]45C[C@@]35CC[C@]2(C)[C@H]1[C@H](C)[C@@H](OC(C)=O)C(=O)C=C(C)C | 34 | – | 1.1 | 44
CC(C)=CC(=O)C[C@@H](C)[C@H]1CC[C@@]2(C)[C@@H]3CC[C@H]4[C@](C)(C(=O)O[C@@H]5O[C@@H](C)[C@H](O)[C@@H](O)[C@H]5O)[C@@H](O)CC[C@@]45C[C@@]35CC[C@]12C | 1 | – | 1 | 1.1
C=C(C(=O)C[C@@H](C)[C@H]1[C@@H](OC(C)=O)C[C@@]2(C)[C@@H]3CC[C@H]4[C@](C)(C(=O)O)[C@@H](O)CC[C@@]45C[C@@]35CC[C@]12C)C(C)CO (some centres not stated) | 1.3 | – | 1 | 2.8
C=C(C(=O)[C@H](OC(C)=O)[C@@H](C)[C@H]1[C@@H](OC(C)=O)C[C@@]2(C)[C@@H]3CC[C@H]4[C@H](C)C(=O)C=C[C@@]45C[C@@]35CC[C@]12C)[C@@H](C)COC(C)=O | 48 | 1.1 | 12 | –
C=C(C(=O)[C@H](OC(C)=O)[C@@H](C)[C@H]1[C@@H](OC(C)=O)C[C@@]2(C)[C@@H]3CC[C@H]4[C@H](C)C(=O)C=C[C@@]45C[C@@]35CC[C@]12C)[C@H](C)CO | 71 | 1 | 1.5 | 60
CC(=O)O[C@H]1C[C@@]2(C)[C@@H]3CC[C@H]4[C@H](C)C(=O)C=C[C@@]45C[C@@]35CC[C@]2(C)[C@H]1[C@H](C)C=O | 1.3 | – | 1.1 | 3
C=C(C(=O)[C@H](O)[C@@H](C)[C@H]1[C@@H](OC(C)=O)C[C@@]2(C)[C@@H]3CC[C@H]4[C@](C)(C(=O)O)[C@@H](O)CC[C@@]45C[C@@]35CC[C@]12C)C(C)C | 1.3 | – | 1.2 | 1.8
C=C(C(=O)[C@H](OC(C)=O)[C@@H](C)[C@H]1[C@@H](OC(C)=O)C[C@@]2(C)[C@@H]3[C@H]4O[C@H]4[C@H]4[C@H](C)C(=O)C=C[C@@]45C[C@@]35CC[C@]12C)[C@@H](C)CO | 72 | – | 2.8 | 15
